Data reported in patent US6756362B2, “Methods and compositions based on inhibition of cell invasion and fibrosis by anionic polymers” (priority 1991, dated 2004).

Columns and labels:
rat C6 glioma = assay: Stripe assay, C6; assay type: cell-based; design: key to DS-PG Effect on Adhesion, Migration and Invasion / Effect of KS/CS-PG on Cell Migration: Bands that were completely inhibitory to cell adhesion, migration and/or invasion were evaluated as (−); those allowing limited cell adhesion, migration and/or invasion (+/−); those permissive to cell adhesion, migration and/or invasion as (+); settings: for Effect of KS/CS-PG on Cell Migration / DS-PG Effect on Adhesion, Migration and Invasion: C6; for DS-PG Effect on Adhesion, Migration and Invasion: 2 days following plating
Method: (§1) Cell lines. Murine 3T3 fibroblast (NIH), rat C6 glioma (Paganetti et al., 1988, J. Cell Biol. 107:2281) and MCG-28 young immortalized mouse astrocyte (a murine neonatal astrocyte line immortalized with SV-40) were grown in medium composed of Dulbecco's modified Eagle medium (DMEM), 10% fetal calf serum (Gibco Laboratories), and penicillin G/streptomycin (100 units/ml, 100 μg/ml respectively, Gibco Laboratories). For the stripe assay, confluent plates were disaggregated with 0.05% trypsin, 0.53 mM EDTA (Gibco Laboratories) and seeded at 200,000 cells/ml (3 ml/plate). For the cell adhesion assays, confluent cultures were disaggregated with 0.03% EDTA and plated in a 96-well microtiter plate at 20,000-100,000 cells per well. PC12 cells, a pheochromocytoma cell line (Green L. A. & Tischler A. S., 1976, Proc. Natl. Acad. Sci. U.S.A. 73:2424), were grown in medium containing Roswell Park Memorial Institute (RPMI) medium 1640 (Gibco Laboratories), 10% horse serum, 5% fetal calf serum (FCS), and penicillin G/streptomycin (100 units/ml, 100 μg/ml respectively, Gibco Laboratories). The cells were disaggregated with 0.03% EDTA and plated in a 96-well microtiter plate at 3,000 cells per well.
(§2) The stripe assay was performed essentially as described by Snow et al. (1990, Exp. Neural. 309:111-130). Tissue culture Petri dishes (Falcon, 60 mm) were precoated with 0.5 ml of a mixture of 5 cm^2 section nitrocellulose (Schleicher & Schuell, Type BA 85) dissolved in 6 ml methanol, and air dried in a laminar flow hood. Cellulose filter paper (Whatman #1) was cut into 12×0.35 mm strips with a McIlwain tissue chopper (The Mickle Laboratory Engineering Co., LTD). A strip of filter paper was soaked in 20 μl of a solution of DS-PG or KS/CS-PG and LN at given concentration, blotted onto the nitrocellulose-coated dish for 30 sec. and removed. The test solution was allowed to air dry. This process was repeated several times creating clearly defined, equally spaced parallel bands of uniform width on the plates. A thin layer of 0.1 or 1 mg/ml LN was then spread evenly across the bands with a bent glass Pasteur pipet, and covered with culture medium (FIG. 1).
(§3) Plates were seeded with cell suspensions of 2.0×10^5 cells/ml or 4-10 DRG explants. The cultures were assessed for degree of adhesion, migration and/or invasion of the DS-PG or KS/CS-PG bands over a period of up to 7 days using a Leitz Fluovert microscope.
(§4) Bands that were completely inhibitory to cell adhesion, migration and/or invasion were evaluated as (−), those allowing limited cell adhesion, migration and/or invasion (+/−), and those permissive to cell adhesion, migration and/or invasion as (+). cell adhesion was defined as the initial interaction between the cell surface and the substratum which results in cell attachment and spreading. Cell migration was operationally defined as cell movement within the same substratum, and cell invasion was operationally defined as cell movement from one type of substratum to another type of substratum.

Murine 3T3 fibroblast = assay: Stripe assay, 3T3; assay type: cell-based, mouse; design: key: Bands that were completely inhibitory to cell adhesion, migration and/or invasion were evaluated as (−); those allowing limited cell adhesion, migration and/or invasion (+/−); those permissive to cell adhesion, migration and/or invasion as (+); settings: for Effect of KS/CS-PG on Cell Migration / DS-PG Effect on Adhesion, Migration and Invasion: 3T3; for DS-PG Effect on Adhesion, Migration and Invasion: 2 days following plating
Method: as §1, §2, §3, §4

[1] = 0.25 mg/ml KS/CS-PG + LN stripes
[2] = 0.5 mg/ml KS/CS-PG + LN stripes
[3] = 1.0 mg/ml KS/CS-PG + LN stripes
[4] = 2.7 mg/ml KS/CS-PG + LN stripes
[5] = 0.1 mg/ml DS-PG + 20 μg/ml LN stripes
[6] = 0.2 mg/ml DS-PG + 20 μg/ml LN stripes
[7] = 0.4 mg/ml DS-PG + 20 μg/ml LN stripes
[8] = 0.8 mg/ml DS-PG + 20 μg/ml LN stripes

keratan sulfate/chrondroitin sulfate-proteoglycans [KS/CS-PG]
Effect of KS/CS-PG on Cell Migration (rat C6 glioma; [1]): +
Effect of KS/CS-PG on Cell Migration (rat C6 glioma; [2]): +
Effect of KS/CS-PG on Cell Migration (rat C6 glioma; [3]): +
Effect of KS/CS-PG on Cell Migration (rat C6 glioma; [4]): +/−
time by which C6 overcame inhibition (rat C6 glioma; 2.7 mg/ml KS/CS-PG, following plating): ≤ 48 h
Effect of KS/CS-PG on Cell Migration (Murine 3T3 fibroblast; [1]): +
Effect of KS/CS-PG on Cell Migration (Murine 3T3 fibroblast; [2]): +/−
Effect of KS/CS-PG on Cell Migration (Murine 3T3 fibroblast; [3]): +/−
Effect of KS/CS-PG on Cell Migration (Murine 3T3 fibroblast; [4]): −

Dermatan sulfate proteoglycan [DS-PG]
DS-PG Effect on Adhesion, Migration and Invasion (rat C6 glioma; [5]): +
DS-PG Effect on Adhesion, Migration and Invasion (rat C6 glioma; [6]): +/−
DS-PG Effect on Adhesion, Migration and Invasion (rat C6 glioma; [7]): −
DS-PG Effect on Adhesion, Migration and Invasion (rat C6 glioma; [8]): −
stability of clear stripes (inhibition of C6 cells) (rat C6 glioma; 0.8 mg/ml DS-PG, followed up to 6 days): ≥ 4 days
Time Dependent Effect of DS-PG on 3T3 Cell Migration (Murine 3T3 fibroblast; 0.1 mg/ml (1.25 μM), 1d): +
Time Dependent Effect of DS-PG on 3T3 Cell Migration (Murine 3T3 fibroblast; 0.1 mg/ml (1.25 μM), 2d): +
Time Dependent Effect of DS-PG on 3T3 Cell Migration (Murine 3T3 fibroblast; 0.1 mg/ml (1.25 μM), 3d): +
Time Dependent Effect of DS-PG on 3T3 Cell Migration (Murine 3T3 fibroblast; 0.1 mg/ml (1.25 μM), 4d): +
Time Dependent Effect of DS-PG on 3T3 Cell Migration (Murine 3T3 fibroblast; 0.1 mg/ml (1.25 μM), 7d): +
DS-PG Effect on Adhesion, Migration and Invasion (Murine 3T3 fibroblast; [5]): +
Time Dependent Effect of DS-PG on 3T3 Cell Migration (Murine 3T3 fibroblast; 0.2 mg/ml (2.5 μM), 1d): +/−
Time Dependent Effect of DS-PG on 3T3 Cell Migration (Murine 3T3 fibroblast; 0.2 mg/ml (2.5 μM), 2d): +/−
Time Dependent Effect of DS-PG on 3T3 Cell Migration (Murine 3T3 fibroblast; 0.2 mg/ml (2.5 μM), 3d): +/−
Time Dependent Effect of DS-PG on 3T3 Cell Migration (Murine 3T3 fibroblast; 0.2 mg/ml (2.5 μM), 4d): +/−
Time Dependent Effect of DS-PG on 3T3 Cell Migration (Murine 3T3 fibroblast; 0.2 mg/ml (2.5 μM), 7d): +
DS-PG Effect on Adhesion, Migration and Invasion (Murine 3T3 fibroblast; [6]): +/−
Time Dependent Effect of DS-PG on 3T3 Cell Migration (Murine 3T3 fibroblast; 0.4 mg/ml (5 μM), 1d): −
Time Dependent Effect of DS-PG on 3T3 Cell Migration (Murine 3T3 fibroblast; 0.4 mg/ml (5 μM), 2d): −
Time Dependent Effect of DS-PG on 3T3 Cell Migration (Murine 3T3 fibroblast; 0.4 mg/ml (5 μM), 3d): −
Time Dependent Effect of DS-PG on 3T3 Cell Migration (Murine 3T3 fibroblast; 0.4 mg/ml (5 μM), 4d): −
Time Dependent Effect of DS-PG on 3T3 Cell Migration (Murine 3T3 fibroblast; 0.4 mg/ml (5 μM), 7d): +/−
DS-PG Effect on Adhesion, Migration and Invasion (Murine 3T3 fibroblast; [7]): −
Time Dependent Effect of DS-PG on 3T3 Cell Migration (Murine 3T3 fibroblast; 0.8 mg/ml (10 μM), 1d): −
Time Dependent Effect of DS-PG on 3T3 Cell Migration (Murine 3T3 fibroblast; 0.8 mg/ml (10 μM), 2d): −
Time Dependent Effect of DS-PG on 3T3 Cell Migration (Murine 3T3 fibroblast; 0.8 mg/ml (10 μM), 3d): −
Time Dependent Effect of DS-PG on 3T3 Cell Migration (Murine 3T3 fibroblast; 0.8 mg/ml (10 μM), 4d): −
Time Dependent Effect of DS-PG on 3T3 Cell Migration (Murine 3T3 fibroblast; 0.8 mg/ml (10 μM), 7d): +/−
DS-PG Effect on Adhesion, Migration and Invasion (Murine 3T3 fibroblast; [8]): −
